How the values were obtained:
Assay type in all cases: in vivo
Echinochloa crusgalli = assay: Seedling stage sealing experiment for water-seeding; conditions: 120 g a.i./ha, 15 days, fresh weight control rate
Echinochloa phyllopogon = assay: as above; conditions: 120 g a.i./ha, 15 days, fresh weight control rate
Summary of the method: (§1)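 Grades run from 0 (no effect) to 9 (completely dead), each band set by percent fresh-weight growth control. Application by spray tower at 120, 60, 30 and 15 g a.i./ha in triplicate; evaluated after 15 days of greenhouse culture.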

Huaidao (rice cultivar) = assay: Seedling stage sealing experiment for water-seeding (crop safety); conditions: 120 g a.i./ha, 15 days, fresh weight control rate; for Huaidao (rice cultivar) plant damage level: seedling stage sealing; for Huaidao (rice cultivar) plant damage level (growth control rate): spray, seedling stage sealing for water-seeding
Summary of the method: as §1

[1] = spray, seedling stage sealing for water-seeding

SMILES | Echinochloa crusgalli activity level (growth control rate) (Echinochloa crusgalli; seedling stage sealing) | Echinochloa phyllopogon activity level (growth control rate) (Echinochloa phyllopogon; seedling stage sealing) | Huaidao (rice cultivar) plant damage level (Huaidao (rice cultivar)) | Echinochloa crusgalli activity level (growth control rate) (Echinochloa crusgalli; [1]) | Echinochloa phyllopogon activity level (growth control rate) (Echinochloa phyllopogon; [1]) | Huaidao (rice cultivar) plant damage level (growth control rate) (Huaidao (rice cultivar))
Cc1c(NC(=O)[C@H]2C(=O)N(C)C[C@@H]2c2cccc(C(F)(F)F)c2)cnn1C [189′] | 9 | 9 | 0 |  |  | 
CN1C[C@H](c2cccc(C(F)(F)F)c2)[C@@H](C(=O)Nc2cnn(C)c2S(C)(=O)=O)C1=O [480′] |  |  |  | 9 | 9 | 1 (Level 1: growth control rate less than 10%)
CN1C[C@H](c2cc(Cl)cc(Cl)c2)[C@@H](C(=O)Nc2cnn(C)c2Cl)C1=O [519′] |  |  |  | 9 | 9 | 1 (Level 1: growth control rate less than 10%)
Cc1cc(C)cc([C@H]2CN(C)C(=O)[C@@H]2C(=O)Nc2cnn(C)c2CF)c1 [495′] |  |  |  | 9 | 7 (Level 7: growth control rate greater than or equal to 80% and less than 90%) | 0
Cc1cc(C)cc([C@H]2CN(C)C(=O)[C@@H]2C(=O)Nc2cnn(C)c2CO)c1 [502′] |  |  |  | 9 | 7 (Level 7: growth control rate greater than or equal to 80% and less than 90%) | 0
Cc1cccc([C@H]2CN(C)C(=O)[C@@H]2C(=O)Nc2cn(C)nc2I)c1 [399′] | 9 | 9 | 0 |  |  | 
CO/N=C/c1c(NC(=O)[C@H]2C(=O)N(C)C[C@@H]2c2cc(C)cc(C)c2)cnn1C [501′] |  |  |  | 9 | 7 (Level 7: growth control rate greater than or equal to 80% and less than 90%) | 0
Cc1cc(C2CN(C)C(=O)C2C(=O)Nc2cnn(C)c2C(F)(F)F)cc(C)c1C (stereo not drawn) [Compound 517] |  |  |  | 9 | 9 | 0
COCn1ncc(NC(=O)[C@H]2C(=O)N(C)C[C@@H]2c2cc(C)cc(C)c2)c1Cl [422′] | 9 | 9 | 1 (Level 1: growth control rate less than 10%) |  |  | 
C=Cc1c(NC(=O)[C@H]2C(=O)N(C)C[C@@H]2c2cccc(C)c2)cnn1C(F)F [468′] |  |  |  | 9 | 9 | 0
Cc1cc([C@H]2CN(C)C(=O)[C@@H]2C(=O)Nc2cnn(C)c2C2CC2)cc(C)c1C [448′] |  |  |  | 9 | 9 | 0
COc1c(C(F)(F)F)ccc([C@H]2CN(C)C(=O)[C@@H]2C(=O)Nc2cnn(C)c2Cl)c1F [446′] |  |  |  | 9 | 9 | 0
Cc1cc([C@H]2CN(C)C(=O)[C@@H]2C(=O)Nc2cnn(C)c2Br)cc(C)c1C [516′] |  |  |  | 9 | 9 | 0
CCn1ncc(NC(=O)[C@H]2C(=O)N(C)C[C@@H]2c2cccc(C)c2)c1C1CC1 [394′] | 9 | 6 (Level 6: growth control rate greater than or equal to 70% and less than 80%) | 0 |  |  | 
CN1C[C@H](c2cc(F)cc(C(F)(F)F)c2)[C@@H](C(=O)Nc2cnn(C)c2Cl)C1=O [67′] | 9 | 8 (Level 8: growth control rate greater than or equal to 90% and less than 100%) | 1 (Level 1: growth control rate less than 10%) |  |  | 
Cc1cc(C)cc([C@H]2CN(C)C(=O)[C@@H]2C(=O)Nc2cnn(C(F)F)c2C)c1 [494′] |  |  |  | 9 | 9 | 2 (Level 2: growth control rate greater than or equal to 10% and less than 20%)
Cc1cccc([C@H]2CN(C)C(=O)[C@@H]2C(=O)Nc2cnn(C)c2Br)c1 [389′] | 9 | 9 | 0 |  |  | 
C#CCn1ncc(NC(=O)[C@H]2C(=O)N(C)C[C@@H]2c2cccc(C)c2)c1Cl [132′] | 7 (Level 7: growth control rate greater than or equal to 80% and less than 90%) | 7 (Level 7: growth control rate greater than or equal to 80% and less than 90%) | 0 |  |  | 
Cc1ccc([C@H]2CN(C)C(=O)[C@@H]2C(=O)Nc2cnn(C)c2Cl)cc1C [314′] | 9 | 9 | 0 |  |  | 
CN1C[C@H](c2cc(Cl)cc(Cl)c2)[C@@H](C(=O)Nc2cnn(C)c2C2CC2)C1=O [443′] |  |  |  | 9 | 8 (Level 8: growth control rate greater than or equal to 90% and less than 100%) | 0
Cc1cccc([C@H]2CN(C)C(=O)[C@@H]2C(=O)Nc2cnn(C(F)F)c2C)c1 [465′] |  |  |  | 9 | 9 | 2 (Level 2: growth control rate greater than or equal to 10% and less than 20%)
CN1C[C@H](c2cccc(C(F)(F)F)c2)[C@@H](C(=O)Nc2cnn(C)c2)C1=O [156′] | 9 | 7 (Level 7: growth control rate greater than or equal to 80% and less than 90%) | 0 |  |  | 
CN1C[C@H](c2cc(F)cc(F)c2)[C@@H](C(=O)Nc2cnn(C)c2C(F)(F)F)C1=O [489′] |  |  |  | 9 | 9 | 0
COCCn1ncc(NC(=O)[C@H]2C(=O)N(C)C[C@@H]2c2cccc(C)c2)c1Cl [386′] | 9 | 6 (Level 6: growth control rate greater than or equal to 70% and less than 80%) | 0 |  |  | 
Cc1cc(F)cc([C@H]2CN(C)C(=O)[C@@H]2C(=O)Nc2cnn(C)c2Cl)c1 [264′] | 9 | 9 | 0 |  |  | 
CN1C[C@H](c2cc(F)cc(Cl)c2)[C@@H](C(=O)Nc2cnn(C)c2Cl)C1=O [507′] |  |  |  | 9 | 9 | 0
